The record followed here is ChEMBL document CHEMBL1147460, “Syntheses and SAR studies of 4-(heteroarylpiperdin-1-yl-methyl)-pyrrolidin-1-yl-acetic acid antagonists of the human CCR5 chemokine receptor” (Bioorg Med Chem Lett, 2004).

Series [1] can be described thus: Plasma clearance in rat. The series is classed as ADME, organism-based. Conditions: read-out: Clp.
The nature of series [2]: Oral bioavailability in rat. Type of series: ADME, organism-based. The conditions noted are these: in vivo.
Series [3] deals with HeLa. The series can be described thus: Anti viral activity was determined in anti HIV-1 infectivity assay in HeLa Magi cells. The conditions noted are these: Homo sapiens. The series is classed as functional, cell-based.
Series [4] is described as follows: Half life in rat. Conditions: in vivo. Type of series: ADME, organism-based.
A short description of series [5]: Volume of distribution in rat. Type of series: ADME, organism-based. The conditions noted are these: in vivo, read-out: Vdss.
Series [6] concerns the target T1, C-C chemokine receptor type 5 (Homo sapiens, UniProt P51681). Kind of series: Inhibition of human C-C chemokine receptor type 5 assayed using [125I]-MIP-1 alpha as radioligand.
For series [7], the system named is HeLa. The series can be described thus: Anti viral activity in anti HIV-1 infectivity assay in HeLa Magi cells. Type of series: functional. Conditions: Homo sapiens.
Series [8] addresses T1, C-C chemokine receptor type 5. The series can be described thus: Inhibitory concentration against C-C chemokine receptor type 5 using [125I]-MIP-1 alpha as radioligand.

T1 sequence (P51681 whole entry): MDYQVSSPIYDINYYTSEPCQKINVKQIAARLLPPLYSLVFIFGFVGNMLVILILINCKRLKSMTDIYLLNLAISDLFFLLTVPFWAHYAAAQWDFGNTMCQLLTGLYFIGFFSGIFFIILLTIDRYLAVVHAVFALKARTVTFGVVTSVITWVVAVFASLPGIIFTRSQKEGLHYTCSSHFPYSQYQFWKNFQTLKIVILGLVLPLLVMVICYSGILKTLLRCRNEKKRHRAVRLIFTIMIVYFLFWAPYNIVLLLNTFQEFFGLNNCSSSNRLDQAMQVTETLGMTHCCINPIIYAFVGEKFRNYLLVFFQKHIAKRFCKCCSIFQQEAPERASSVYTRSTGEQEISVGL

For orientation: bioavailability means dose-corrected exposure relative to a reference, in per cent. High values mean good availability, low ones poor availability. In general, IC50 refers to the concentration needed to halve the response being measured. For orientation: half-life means the time in which the quantity being followed falls by half. A high value points to slow decline. Turning to `O=C(O)[C@@H](CC1CC1)N1C[C@H](CN2CCC(c3[nH]c(Cc4ccccc4)nc3Cl)CC2)[C@@H](c2cccc(F)c2)C1`, the clearance in series [1] was determined as 60.5 mL/min/kg. Further, in series [2], the bioavailability was determined as 1.1%. The IC50 was 0.4 nM with HeLa [3] and 0.7 nM in series [6]. For the same molecule, the half-life in series [4] is 31.8 min. The Vd in series [5] was 1.05 L/kg.

As for `CCc1nc(Cc2ccccc2)sc1C1CCN(C[C@H]2CN([C@H](CC3CCC3)C(=O)O)C[C@@H]2c2cccc(F)c2)CC1`, the 50% inhibitory concentration (IC50) turned out to be 0.13 nM in the series with HeLa [3] and 0.76 nM in series [6].

For orientation: IC90 means the concentration at which the effect reaches the 90% level. Molecule `O=C(O)[C@@H](C1CCCCC1)N1C[C@H](CN2CCC(c3csc(-c4ccccc4)n3)CC2)[C@@H](c2ccccc2)C1` showed a concentration for an effect of 90% (IC90) in the series on HeLa [7] of 100 nM. Besides, the IC50 in series [6] was determined as 1.1 nM.

Take `CCc1nc(Cc2ccccc2)sc1C1CCN(C[C@H]2CN([C@@H](C(=O)O)C(C)C)C[C@@H]2c2cccc(F)c2)CC1`: in series [1], the clearance was determined as 1.15 mL/min/kg. The bioavailability in series [2] was determined as 19%. Also, the half-maximal inhibitory concentration (IC50) amounted to 0.13 nM in the series with HeLa [3] and 1 nM in series [6]. This molecule also gave a half-life in series [4] of 50.4 min. Further, the Vd in series [5] came out at 0.54 L/kg.

In the case of `CCc1nc(Cc2ccccc2)oc1C1CCN(C[C@H]2CN([C@H](CC3CCC3)C(=O)O)C[C@@H]2c2cccc(F)c2)CC1`, the IC50 came out at 0.13 nM in the series on HeLa [3] and 0.89 nM in series [6].

Turning to `O=C(O)[C@@H](CC1CCC1)N1C[C@H](CN2CCC(c3[nH]c(Cc4ccccc4)nc3Cl)CC2)[C@@H](c2cccc(F)c2)C1`, the IC50 with HeLa [3] worked out at 0.13 nM; in series [6] it was 0.6 nM.

`CCc1nc(Cc2ccccc2)[nH]c1C1CCN(C[C@H]2CN([C@H](CC3CCC3)C(=O)O)C[C@@H]2c2cccc(F)c2)CC1`: the IC50 with HeLa [3] was found to be 0.4 nM; in series [6], 0.57 nM.

For the molecule `O=C(O)[C@@H](CC1CCC1)N1C[C@H](CN2CCC(c3c[nH]c(Cc4ccccc4)n3)CC2)[C@@H](c2ccccc2)C1`, the IC50 was determined as 100 nM in the series with HeLa [3] and 0.38 nM in series [6].

`O=C(O)[C@@H](CC1CC1)N1C[C@H](CN2CCC(c3c[nH]c(Cc4ccccc4)n3)CC2)[C@@H](c2ccccc2)C1`: the IC50 in the series on HeLa [3] worked out at 100 nM; in series [6], 0.73 nM.

For `O=C(O)C(CC1CC1)N1CC(c2ccccc2)[C@@H](CN2CCC(c3cnc(Cc4ccccc4)s3)CC2)C1` (some centres undefined), the IC50 in the series with HeLa [3] is 0.13 nM; in series [6], 0.23 nM.

In the case of `O=C(O)C(CC1CCC1)N1CC(c2ccccc2)[C@@H](CN2CCC(c3cnc(Cc4ccccc4)s3)CC2)C1` (some centres undefined), the IC50 with HeLa [3] worked out at 0.13 nM; in series [6] it was 0.23 nM.

The molecule `O=C(O)[C@@H](C1CCCCC1)N1C[C@H](CN2CCC(c3nocc3-c3ccccc3)CC2)[C@@H](c2ccccc2)C1` displayed an IC50 in series [6] of 27 nM.

Regarding `O=C(O)[C@@H](C1CCCCC1)N1C[C@H](CN2CCC(c3nc(-c4ccccc4)c[nH]3)CC2)[C@@H](c2ccccc2)C1`, the IC50 in series [6] is 23 nM.

With `CC(C)[C@H](C(=O)O)N1C[C@H](CN2CCC(c3cnc(Cc4ccccc4)[nH]3)CC2)[C@@H](c2ccccc2)C1`, the values for the IC50 (in the series with HeLa [3]; in series [6]) were 300 nM and 7 nM, respectively.

With `CC(C)[C@H](C(=O)O)N1C[C@H](CN2CCC(c3cnc(Cc4ccccc4)o3)CC2)[C@@H](c2ccccc2)C1`, the IC50 in the series on HeLa [3] came out at 300 nM; in series [6], 3.8 nM.

`O=C(O)[C@@H](C1CCCCC1)N1C[C@H](CN2CCC(c3cnc(Cc4ccccc4)s3)CC2)[C@@H](c2ccccc2)C1` returned an IC90 with HeLa [7] of 0.14 nM. In series [6], this molecule yielded an IC50 of 0.29 nM.

Turning to `O=C(O)[C@@H](CC1CC1)N1C[C@H](CN2CCC(c3cnc(Cc4ccccc4)o3)CC2)[C@@H](c2ccccc2)C1`, the IC50 came out at 3.7 nM in the series on HeLa [3] and 1.6 nM in series [6].

Turning to `O=C(O)[C@@H](CC1CCC1)N1C[C@H](CN2CCC(c3cnc(Cc4ccccc4)o3)CC2)[C@@H](c2ccccc2)C1`, the figures for the IC50 (in the series on HeLa [3]; in series [6]) were 3.7 nM and 0.34 nM, respectively.

For the molecule `O=C(O)[C@@H](C1CCCCC1)N1C[C@H](CN2CCC(c3csc(Cc4ccccc4)n3)CC2)[C@@H](c2ccccc2)C1`, the IC90 in the series on HeLa [7] was determined as 33 nM. For the same molecule, the IC50 in series [6] stood at 1.3 nM.

In the series with HeLa [7], `O=C(O)[C@@H](C1CCCCC1)N1C[C@H](CN2CCC(c3ncc(Cc4ccccc4)o3)CC2)[C@@H](c2ccccc2)C1` had an IC90 of 100 nM. This molecule also yielded a half-maximal inhibitory concentration (IC50) in series [6] of 1.5 nM.

Regarding `O=C(O)[C@@H](C1CCCCC1)N1C[C@H](CN2CCC(c3cnc(-c4ccccc4)[nH]3)CC2)[C@@H](c2ccccc2)C1`, the 90% effect level in the series with HeLa [7] (IC90) was put at 33 nM. The same molecule yielded an IC50 in series [6] of 6.2 nM.

In turn, `O=C(O)[C@@H](C1CCCCC1)N1C[C@H](CN2CCC(c3ncc(Cc4ccccc4)s3)CC2)[C@@H](c2ccccc2)C1` displayed an IC90 with HeLa [7] of 33 nM. The molecule also came in with an IC50 in series [6] of 2 nM.

Regarding `O=C(O)[C@@H](C1CCCCC1)N1C[C@H](CN2CCC(c3cc(-c4ccccc4)no3)CC2)[C@@H](c2ccccc2)C1`, the IC50 in series [8] came to 18.1 nM.

Take `CC(C)[C@H](C(=O)O)N1C[C@H](CN2CCC(c3cnc(Cc4ccccc4)s3)CC2)[C@@H](c2ccccc2)C1`: the IC50 with HeLa [3] was 11 nM; in series [6] it was 0.51 nM.

For `O=C(O)[C@@H](C1CCCCC1)N1C[C@H](CN2CCC(c3cnc(Cc4ccccc4)[nH]3)CC2)[C@@H](c2ccccc2)C1`, the IC50 in series [6] was found to be 0.67 nM.
